Data from patent publication US6713629B2 (dated 2004).

melting point: 95 to 96 °C
Compound: CC1(c2ccccc2)SC(=S)N(Nc2ccccc2)C1=NOC(=O)Nc1ccc(Cl)c(Cl)c1 (stereo not shown)
